Experimental data published in publication PMC10285260, “Processive kinetics in the three-step lanosterol 14α-demethylation reaction catalyzed by human cytochrome P450 51A1” (The Journal of Biological Chemistry, 2023).
Like-named read-outs stand apart in the source and are kept apart here. Blank lines part the entries; values can stand above or below the molecule they belong to.

How the values were obtained:
[1] = system: human P450 51A1; assay: Kinetic modeling (KinTek Explorer) of the single-turnover time course
From the text: The initial koff rate constants used in fitting were the koff rates measured in the stopped-flow trap experiments (Fig. 9). All three oxidation reactions are irreversible, and thus k-2, k-4, and k-6 were set to zero.
Data were imported into KinTek Explorer software (v. 11.01, KinTek, https://kintekcorp.com/software) ([63], [64]) as txt files and processed using an Apple computer (operating system 11.6.2).

[2] = target: T1, human P450 51A1 (Homo sapiens, UniProt Q16850); assay: Spectral (difference spectroscopy) Kd estimates of P450 51A1-sterol complexes; assay type: binding; set-up: made in house; host or cells: Escherichia coli
T1 sequence (Q16850 1-509): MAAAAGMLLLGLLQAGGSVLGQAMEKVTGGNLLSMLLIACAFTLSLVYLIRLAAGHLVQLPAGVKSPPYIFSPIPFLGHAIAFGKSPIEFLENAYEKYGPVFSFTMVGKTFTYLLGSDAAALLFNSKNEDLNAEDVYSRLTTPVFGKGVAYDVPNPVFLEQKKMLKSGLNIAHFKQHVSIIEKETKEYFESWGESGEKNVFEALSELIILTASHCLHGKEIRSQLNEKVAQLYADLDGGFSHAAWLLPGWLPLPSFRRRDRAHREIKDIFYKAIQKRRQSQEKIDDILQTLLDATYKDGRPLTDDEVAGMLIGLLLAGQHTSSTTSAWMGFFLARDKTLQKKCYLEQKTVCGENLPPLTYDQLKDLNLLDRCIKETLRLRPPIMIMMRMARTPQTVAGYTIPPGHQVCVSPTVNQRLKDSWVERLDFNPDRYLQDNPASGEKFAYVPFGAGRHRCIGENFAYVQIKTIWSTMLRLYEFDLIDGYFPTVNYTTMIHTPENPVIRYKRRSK
Description: Kd values were estimated by difference spectroscopy. P450 51A1 (1.0 μM) was in each of two glass cuvettes (in 100 mM potassium phosphate buffer, pH 7.4) and a baseline was recorded (OLIS-Amino DW2a). Aliquots of a solution of each sterol–HPCD complex were added to the sample cuvette and an equivalent amount of HPCD was added to the reference cuvette, and spectra were recorded. The time between the collection of individual spectra was ∼3 min. The maximum absorbance difference (usually ΔA390-A418) was plotted versus the nominal concentration of added sterol, and the data were fit to hyperbolae in GraphPad Prism software (GraphPad, https://www.graphpad.com), using a quadratic equation to correct the ligand concentration for the enzyme-bound concentration (used as Y=B+(A/2)∗(1/E)∗((Kd+E+X)-sqrt((Kd + E+X)^∧2-(4∗E∗X)) in Prism software). The linear regression fits include the internal error estimates (SE).

[3] = target: T1, human P450 51A1; assay: Stopped-flow koff measurements of P450 51A1-sterol complexes with ketoconazole trap; assay type: binding; set-up: made in house; host or cells: Escherichia coli; settings: 23 °C, 10 μM ketoconazole trap, 1 μM P450 51A1
Description: All assays were done at 23 °C in an OLIS-RSM 1000 stopped-flow spectrophotometer, collecting data every 1 ms over a range of 332 to 565 nm with slit widths of 1.24 mm (8 nm bandpass) and gratings with 400 lines/mm and 500 nm blaze. One syringe contained 20 μM ketoconazole dissolved in 100 mM potassium phosphate buffer (pH 7.4). In a preliminary experiment in which this was mixed with an equal volume of 2 μM P450 51A1 (same buffer), the observed rate of binding (ΔA430) was 25 s^−1.
P450 51A1 (2 μM) was premixed with an equivalent concentration of each of the sterols (in HPCD). Each of these solutions was placed in a drive syringe and rapidly mixed with 20 μM ketoconazole (yielding final concentrations of 1 μM P450 51A1 and 10 μM ketoconazole). The rate of the ΔA430-A390 change was used as the koff rate, that is, the rate at which the sterol left the P450 and allowed it to bind to the trap ligand ketoconazole.

[4] = target: T1, human P450 51A1; assay: Single-turnover rapid-quench kinetics of [3-3H]-dihydrolanosterol oxidation (radio-HPLC); assay type: biochemical; set-up: made in house; host or cells: Escherichia coli
Description: All products were separated and quantified by radio-HPLC (Fig. S24).
Samples (held at 4 °C) were injected (45 μl) onto a Nova-Pak 3.9 mm × 150 mm (4 μm) octadecylsilane (C18) HPLC column (held at 23 °C). The products were separated at a flow rate of 1.0 ml min^−1 using an isocratic mobile phase composed of CH3CN (only) as was done for the LC-UV assays (above). The eluate from the column was mixed (1:2, v-v) with FlowLogic U scintillation cocktail, and radioactivity (^3H) was detected on a β-RAM Model 5 system (IN/US, LabLogic) (Fig. S24). Product formation was assessed as the relative contribution of each peak (in CPM) to the summed peak area of substrate and product(s).
The single-turnover experiments were performed using a KinTek rapid quench-flow apparatus (KinTek). This machine functions by forcing equal volumes (∼19 μl) of two separate solutions into a central mixing chamber, where the components are allowed to incubate for a predetermined period of time before an excess volume of quench solution (∼160 μl) stops the reaction and expels the mixture from the apparatus. […] After the predetermined incubation period, the reaction (37 °C) was quenched with HCl (1 M), and the mixture (∼200 μl) was collected into vials. The products of five identical reactions (time points) were combined and were extracted into CH2Cl2 (5 ml). An aliquot (4 ml) of the lower (organic) layer was removed into a fresh vial, and the extraction was repeated to maximize sample recovery. The pooled organic fraction (∼8 ml) was brought to dryness under a stream of N2 gas, and the residue was redissolved in 60 μl of CH3OH and transferred to LC vials for analysis.

[5] = target: T1, human P450 51A1; assay: Steady-state LC-UV assay of sterol oxidation to dihydro FF-MAS by reconstituted P450 51A1; settings: oxidation to dihydro FF-MAS (epi-dihydro FF-MAS from epi substrate), 37 °C
Description: Steady-state incubations (500 μl) were generally done at 37 °C with 0.025 μM P450 51A1, 0.10 μM NADPH-P450 reductase, 100 μM L-α-dilauroyl-sn-glycero-3-phosphocholine, 50 mM potassium phosphate buffer (pH 7.4), 10% (v/v) glycerol, and an indicated concentration of each sterol (in 45% (w/v) HPCD). […] The sterols (stored at 4 °C) were prepared as described above and were heated to 37 °C and sonicated prior to use. Sterol working stocks were diluted in HPCD to ensure a constant concentration of cyclodextrin in each reaction. […] Accordingly, all reactions were done with this concentration of glycerol.
Reactions were preincubated (5 min, 37 °C) prior to initiation with an NADPH-regenerating system (0.5 mM NADP^+, 10 mM glucose 6-phosphate, and 2 μg ml^−1 glucose 6-phosphate dehydrogenase) ([60]) and were stopped after 5 min with the addition of CH2Cl2 (5 ml). (The NADPH-generating system, in addition to lower cost than NADPH, drives the reaction to avoid inhibition of the reductase by accumulated NADP^+). For the 14α-aldehyde, the times of preincubation and reaction were reduced (to 2 min and 1 min, respectively). The quenched mixture was centrifuged (2000g, 5 min), and 4 ml of the bottom (organic) layer was transferred to vials and brought to dryness under a stream of N2 gas. The dried residue was resuspended in CH3OH (100 μl) and was analyzed by UPLC using a 2.1 mm × 100 mm (1.7 μm) octadecylsilane (C18) column (held at 25 °C) and a Waters Acquity UPLC system. Samples (4 °C) were injected (10 μl) at a flow rate of 0.20 ml min^−1 using an isocratic mobile phase of CH3CN (only). The product (FF-MAS) was detected using a Waters Acquity photodiode array detector set at 250 nm (Fig. 4B). Data were processed using the MassLynx software (http://www.waters.com/waters/en_US/MassLynx-Mass-Spectrometry-Software-/nav.htm?cid=513164&locale=en_US), and the amount of product formed was calculated by comparison to a twelve-point dihydro FF-MAS standard curve. Determination of kcat and Km for each reaction was carried out by fitting the data to a Michaelis–Menten hyperbola, which was done using GraphPad Prism.
Incubations were run in triplicate, and the mean values (±SD) were calculated and plotted. The linear regression fits include the Prism error estimates for internal fitting (SE).

[6] = target: T1, human P450 51A1; assay: Stopped-flow rate of ketoconazole binding to P450 51A1; set-up: made in house; host or cells: Escherichia coli; settings: 10 μM ketoconazole, 1 μM P450 51A1 final
[7] = substrate: CC(C)CCCC(C)[C@H]1CC[C@@]2(C)C3=C(CC[C@]12C)[C@@]1(C)CC[C@@H](O)C(C)(C)C1CC3; assay: purified protein, by the assay type; settings: other: oxidation to dihydro FF-MAS (epi-dihydro FF-MAS from epi substrate), 37 °C, pH 7.4
Description: (§1) Steady-state incubations (500 μl) were generally done at 37 °C with 0.025 μM P450 51A1, 0.10 μM NADPH-P450 reductase, 100 μM L-α-dilauroyl-sn-glycero-3-phosphocholine, 50 mM potassium phosphate buffer (pH 7.4), 10% (v/v) glycerol, and an indicated concentration of each sterol (in 45% (w/v) HPCD). Due to the high turnover rate of the 14α-aldehyde, the P450 and NADPH-P450 reductase concentrations were reduced (to 0.01 μM and 0.04 μM, respectively), and the reaction volume was increased (to 1 ml) to maximize sensitivity. The sterols (stored at 4 °C) were prepared as described above and were heated to 37 °C and sonicated prior to use. Sterol working stocks were diluted in HPCD to ensure a constant concentration of cyclodextrin in each reaction. […] Accordingly, all reactions were done with this concentration of glycerol.
(§2) Reactions were preincubated (5 min, 37 °C) prior to initiation with an NADPH-regenerating system (0.5 mM NADP^+, 10 mM glucose 6-phosphate, and 2 μg ml^−1 glucose 6-phosphate dehydrogenase) ([60]) and were stopped after 5 min with the addition of CH2Cl2 (5 ml). […] For the 14α-aldehyde, the times of preincubation and reaction were reduced (to 2 min and 1 min, respectively). The quenched mixture was centrifuged (2000g, 5 min), and 4 ml of the bottom (organic) layer was transferred to vials and brought to dryness under a stream of N2 gas. The dried residue was resuspended in CH3OH (100 μl) and was analyzed by UPLC using a 2.1 mm × 100 mm (1.7 μm) octadecylsilane (C18) column (held at 25 °C) and a Waters Acquity UPLC system. Samples (4 °C) were injected (10 μl) at a flow rate of 0.20 ml min^−1 using an isocratic mobile phase of CH3CN (only). The product (FF-MAS) was detected using a Waters Acquity photodiode array detector set at 250 nm (Fig. 4B). Data were processed using the MassLynx software (http://www.waters.com/waters/en_US/MassLynx-Mass-Spectrometry-Software-/nav.htm?cid=513164&locale=en_US), and the amount of product formed was calculated by comparison to a twelve-point dihydro FF-MAS standard curve. Determination of kcat and Km for each reaction was carried out by fitting the data to a Michaelis–Menten hyperbola, which was done using GraphPad Prism.

[8] = substrate: CC(C)CCCC(C)[C@H]1CC[C@@]2(C)C3=C(CC[C@]12C)[C@@]1(C)CC[C@H](O)C(C)(C)C1CC3; assay: purified protein, by the assay type; settings: pH 7.4
[9] = substrate: CC(C)CCCC(C)[C@H]1CC[C@@]2(C=O)C3=C(CC[C@]12C)[C@@]1(C)CC[C@H](O)C(C)(C)C1CC3; assay: purified protein, by the assay type; settings: other: oxidation to dihydro FF-MAS (epi-dihydro FF-MAS from epi substrate), 37 °C, pH 7.4
Description: as §1, §2

[10] = substrate: CC(C)CCCC(C)[C@H]1CC[C@@]2(CO)C3=C(CC[C@]12C)[C@@]1(C)CC[C@H](O)C(C)(C)C1CC3; assay: purified protein, by the assay type; settings: other: oxidation to dihydro FF-MAS (epi-dihydro FF-MAS from epi substrate), 37 °C, pH 7.4
Description: as §1, §2

Molecule: CC(C)CCC[C@@H](C)[C@H]1CC=C2C3=C(CC[C@@]21C)[C@@]1(C)CC[C@H](O)C(C)(C)[C@@H]1CC3 [dihydro FF-MAS, 24,25-dihydro FF-MAS]
k^+ of sterol binding to P450 51A1 (kon) used for fitting ([1]; all kon set at this value): 2e+06 M⁻¹ s⁻¹
k^- of sterol binding to P450 51A1 (koff) used for fitting ([1]; optimized model): 2.0 s⁻¹
Kd ([2]; 1.0 μM P450 51A1, quadratic fit, read-out: Kd): 1400 nM
koff [3]: 2 s⁻¹
concentration in single-turnover reaction ([4]; time 0.05 s, start 7 µM dihydrolanosterol): 0 µM
concentration in single-turnover reaction ([4]; time 0.1 s): 0 µM
concentration in single-turnover reaction ([4]; time 0.15 s): 0.2821 µM
concentration in single-turnover reaction ([4]; time 0.2 s): 0.4249 µM
concentration in single-turnover reaction ([4]; time 0.3 s): 0.7518 µM
concentration in single-turnover reaction ([4]; time 0.4 s): 1.2019 µM
concentration in single-turnover reaction ([4]; time 0.6 s): 2.506 µM
concentration in single-turnover reaction ([4]; time 0.8 s): 3.0184 µM
concentration in single-turnover reaction ([4]; time 1 s): 4.0537 µM
concentration in single-turnover reaction ([4]; time 1.2 s): 4.494 µM
concentration in single-turnover reaction ([4]; time 1.6 s): 4.8181 µM
concentration in single-turnover reaction ([4]; time 2 s): 5.2031 µM
concentration in single-turnover reaction ([4]; time 3 s): 5.8863 µM
concentration in single-turnover reaction ([4]; time 4 s): 6.6353 µM
concentration in single-turnover reaction ([4]; time 7 s): 7 µM

Molecule: CC(C)CCCC(C)[C@H]1CC[C@@]2(C)C3=C(CC[C@]12C)[C@@]1(C)CC[C@@H](O)C(C)(C)C1CC3 (stereo partly drawn) [epi-dihydrolanosterol, epi-Dihydrolanosterol]
kcat [5]: 0.42 ± 0.03 s⁻¹
Kd [2]: 14 nM

pseudo-first-order observed rate of binding [6]: 25 s⁻¹
Molecule: CC(=O)N1CCN(c2ccc(OCC3COC(Cn4ccnc4)(c4ccc(Cl)cc4Cl)O3)cc2)CC1 (centres unmarked) [ketoconazole]

B1: human P450 51A1 (Homo sapiens) (protein)
chain: T1 sequence (Q16850 1-509)
Km [7]: 2.0 ± 0.4 µM
kcat/Km ([8]; other: conversion to dihydro FF-MAS, isotope effect comparison): 1.3 (±0.2) × 10^5 M^−1 s^−1
Km ([8]; other: oxidation to dihydro FF-MAS (epi-dihydro FF-MAS from epi substrate), 37 °C): 5.0 ± 0.6 µM
Km [9]: 5.4 ± 0.7 µM
kcat [9]: 1.7 ± 0.1 s⁻¹
Km [10]: 4.3 ± 0.4 µM
kcat [10]: 0.67 ± 0.03 s⁻¹
